The results in this text go back to patent US6545009B1, “Retinoid-related receptor function regulating agent” (Takeda Chemical Industries, Ltd., priority 1998, dated 2003).

As for `CCOC(=O)c1cccc(-c2nc(-c3ccc(C)c(C)c3)cs2)c1` [Example 76, ethyl 3-[4-(3,4-dimethylphenyl)-2-thiazolyl]-benzoate], the melting point is 147 to 148 °C. With `Cc1ccc(-c2csc(-c3ccc(C(=O)O)cc3)n2)cc1` [Example 56, 4-[4-(4-methylphenyl)-2-thiazolyl]benzoic acid] the figure was 289 to 290 °C. As for `Br.CCOC(=O)c1ccc(-c2csc(-c3cccnc3)n2)cc1` [Example 31, ethyl 4-[2-(3-pyridyl)-4-thiazolyl]benzoate hydrobromide], the figure is 234 to 236 °C. Regarding `COc1ccc(-c2coc(-c3ccc(C(=O)O)cc3)n2)cc1` [Example 10, 4-[4-(4-methoxyphenyl)-2-oxazolyl]benzoic acid], the melting point was in the range of 286 to 287 °C.

In turn, `COC(=O)c1ccc(-c2nc(-c3ccc(OC(F)(F)F)cc3)cs2)cc1` [Example 41, methyl 4-[4-(4-trifluoromethoxyphenyl)-2-thiazolyl]benzoate] returned a melting point of 138 to 139 °C. With `COC(=O)c1ccc(-c2nc(-c3ccc(OC(F)F)cc3)cs2)cc1` [Example 28, methyl 4-[4-(4-difluoromethoxyphenyl)-2-thiazolyl]benzoate] the figure was 146 to 148 °C. Take `Cc1cc(-c2csc(-c3ccc(C(=O)O)cc3)n2)c(C)s1` [Example 93, 4-[4-(2,5-dimethyl-3-thienyl)-2-thiazolyl]benzoic acid]: the melting point fell in the range of 239 to 240 °C. As for `O=C(O)c1ccc(-c2coc(-c3cccc(C(F)(F)F)c3)n2)cc1` [Example 26, 4-[2-(3-trifluoromethylphenyl)-4-oxazolyl]benzoic acid], the figure is 268 to 269 °C; as for `COC(=O)c1ccc(-c2nc(-c3ccccc3)co2)cc1` [Example 4, methyl 4-(4-phenyl-2-oxazolyl)benzoate], 175 to 176 °C.

`O=C(O)c1ccc(-c2coc(-c3ccccc3)n2)cc1` [Example 12, 4-(2-phenyl-4-oxazolyl]benzoic acid] registered a melting point of 271 to 273 °C. As for `CCOC(=O)c1ccc(-c2ncc(-c3ccc(Cl)cc3)s2)cc1` [Example 112, ethyl 4-[5-(4-chlorophenyl)-2-thiazolyl]benzoate], the figure is 167 to 168 °C. The compound `COC(=O)c1ccc(-c2nc(-c3ccc(C)cc3)cs2)cc1` [Example 33, methyl 4-[4-(4-methylphenyl)-2-thiazolyl]benzoate] registered a melting point of 185 to 187 °C. `O=C(O)c1ccc(-c2nc(-c3ccccn3)cs2)cc1` [Example 61, 4-[4-(2-pyridyl)-2-thiazolyl]benzoic acid] displayed a melting point above 300 °C. `COC(=O)c1cccc(-c2nc(-c3ccc(OC)cc3)cs2)c1` [Example 47, methyl 3-[4-(4-methoxyphenyl)-2-thiazolyl]benzoate] registered a melting point of 108 to 109 °C.

In turn, `O=C(O)c1ccc(-c2csc(-c3ccncc3)n2)cc1` [Example 59, 4-[2-(4-pyridyl)-4-thiazolyl]benzoic acid] yielded a melting point above 300 °C. In the case of `COC(=O)c1cccc(-c2nc(-c3ccc(C(F)(F)F)cc3)cs2)c1` [Example 44, methyl 3-[4-(4-trifluoromethylphenyl)-2-thiazolyl]benzoate], the melting point was in the range of 142 to 143 °C. As for `Cc1ccc(-c2csc(-c3cccc(C(=O)O)c3)n2)cc1C` [Example 88, 3-[4-(3,4-dimethylphenyl)-2-thiazolyl]benzoic acid], the figure is 235 to 236 °C; as for `COC(=O)c1ccc(-c2nc(-c3ccc(Cl)cc3)cs2)cc1` [Example 29, methyl 4-[4-(4-chlorophenyl)-2-thiazolyl]benzoate], 186 to 187 °C. As for `CCOC(=O)c1cccc(-c2nc(-c3ccc(OCC)cc3)cs2)c1` [Example 82, ethyl 3-[4-(4-ethoxyphenyl)-2-thiazolyl]benzoate], the figure is 108 to 110 °C. The compound `COC(=O)c1ccc(-c2nc(-c3cc(C)oc3C)cs2)cc1` [Example 77, methyl 4-[4-(2,5-dimethyl-3-furyl)-2-thiazolyl]benzoate] returned a melting point of 103 to 105 °C. Turning to `CCOC(=O)c1cccc(-c2nc(-c3cc(C)sc3C)cs2)c1` [Example 78, ethyl 3-[4-(2,5-dimethyl-3-thienyl)-2-thiazolyl]benzoate], the melting point fell in the range of 115 to 116 °C.

`CCOC(=O)c1ccc(-c2coc(-c3ccc(C(F)(F)F)cc3)n2)cc1` [Example 19, ethyl 4-[2-(4-trifluoromethylphenyl)-4-oxazolyl]benzoate]: the melting point fell in the range of 168 to 170 °C. As for `O=C(O)c1cccc(-c2nc(-c3ccc(C(F)(F)F)cc3)cs2)c1` [Example 67, 3-[4-(4-trifluoromethylphenyl)-2-thiazolyl]benzoic acid], the figure is 230 to 231 °C; as for `COC(=O)c1cccc(-c2nc(-c3ccc(C(F)(F)F)cc3)co2)c1` [Example 21, methyl 3-[4-(4-trifluoromethylphenyl)-2-oxazolyl]benzoate], 151 to 152 °C. With `O=C(O)c1ccc(-c2csc(-c3cccnc3)n2)cc1` [Example 54, 4-[2-(3-pyridyl)-4-thiazolyl]benzoic acid] the figure was above 300 °C; with `COC(=O)c1ccc(-c2nc(-c3c(F)c(F)c(F)c(F)c3F)cs2)cc1` [Example 42, methyl 4-[4-(2,3,4,5,6-pentafluorophenyl)-2-thiazolyl]benzoate], 141 to 142 °C; with `Cc1ccc(-c2csc(-c3ccc(C(=O)O)cc3)n2)cc1C` [Example 90, 4-[4-(3,4-dimethylphenyl)-2-thiazolyl]benzoic acid], 261 to 262 °C. With `CCOC(=O)c1ccc(-c2cnc(-c3ccc(C(F)(F)F)cc3)o2)cc1` [Example 107, ethyl 4-[2-(4-trifluoromethylphenyl)-5-oxazolyl]benzoate] the figure was 142 to 143 °C; with `O=C(O)c1ccc(-c2coc(-c3ccc(C(F)(F)F)cc3)n2)cc1` [Example 25, 4-[2-(4-trifluoromethylphenyl)-4-oxazolyl]benzoic acid], 294 to 295 °C. Compound `COC(=O)c1ccc(-c2nc(-c3cc(Cl)sc3Cl)cs2)cc1` [Example 80, methyl 4-[4-(2,5-dichloro-3-thienyl)-2-thiazolyl]benzoate] came in with a melting point of 149 to 150 °C. With `COC(=O)c1ccc(-c2nc(-c3ccc(C(C)(C)C)cc3)cs2)cc1` [Example 85, methyl 4-[4-(4-t-butylphenyl)-2-thiazolyl]benzoate] the figure was 154 to 155 °C; with `O=C(O)c1ccc(-c2nc(-c3ccccc3C(F)(F)F)cs2)cc1` [Example 60, 4-[4-(2-trifluoromethylphenyl)-2-thiazolyl]benzoic acid], 225 to 227 °C. With `O=C(O)c1ccc(-c2nc(-c3c(F)c(F)c(F)c(F)c3F)cs2)cc1` [Example 65, 4-[4-(2,3,4,5,6-pentafluorophenyl)-2-thiazolyl]benzoic acid] the figure was 273 to 274 °C; with `CCOC(=O)c1cccc(-c2nc(-c3ccc(C)c(C)c3)cs2)c1` [Example 74, ethyl 3-[4-(3,4-dimethylphenyl)-2-thiazolyl]benzoate], 114 to 115 °C.
